biological target: p38α (Homo sapiens, UniProt Q16539); experiment: p38α/MK2 cascade assay; type: biochemical; settings: Table 1; inhibitors preincubated with p38α for 40 minutes; phosphorylation of Hsp27 peptide by MK-2, Caliper LabChip 3000; read-out: p38a/MK2 Cascade 40 min Pre-Incuabtion (% Inhibition): IC50
In short: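 In a cascade format, p38α was preincubated 40 min with inhibitor (1000–0.05 nM) before adding 1 nM nonactive MK2 (54-400), 5 μM MgATP and 0.5 μM FITC-Hsp27 peptide. Reaction ran 60 min in HEPES pH 7.5 with MgCl2, DTT, 2% DMSO, then EDTA-quenched. Peptide phosphorylation was measured by Caliper mobility shift to give IC50.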

p38α, sequence (Q16539 whole entry): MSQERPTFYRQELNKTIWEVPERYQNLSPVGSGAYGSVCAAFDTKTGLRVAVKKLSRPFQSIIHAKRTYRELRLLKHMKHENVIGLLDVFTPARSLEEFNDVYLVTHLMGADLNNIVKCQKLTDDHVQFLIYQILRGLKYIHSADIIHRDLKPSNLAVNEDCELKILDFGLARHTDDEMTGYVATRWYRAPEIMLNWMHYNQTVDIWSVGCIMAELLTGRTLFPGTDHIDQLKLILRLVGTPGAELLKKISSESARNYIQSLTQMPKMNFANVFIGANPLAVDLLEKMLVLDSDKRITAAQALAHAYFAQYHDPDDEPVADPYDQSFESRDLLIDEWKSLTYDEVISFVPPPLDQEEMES

SMILES	IC50 [nM]
COc1ccc(Cn2c(C)cc(OCc3ccccc3CNC(=O)Nc3cc(C(C)(C)C)nn3-c3ccc(C)cc3)c(Br)c2=O)c(OC)c1 [Example 122, 1-[2-({[3-bromo-1-(2,4-dimethoxybenzyl)-6-methyl-2-oxo-1,2-dihydropyridin-4-yl]oxy}methyl)benzyl]-3-[3-tert-butyl-1-(4-methylphenyl)-1H-pyrazol-5-yl]urea]	15.4
COc1cccc(-n2nc(C(C)(C)C)cc2NC(=O)NCc2ccccc2COc2cc(C)n(Cc3ccc(OC)cc3OC)c(=O)c2C)c1 [Example 123, 1-[3-tert-butyl-1-(3-methoxyphenyl)-1H-pyrazol-5-yl]-3-[2-({[1-(2,4-dimethoxybenzyl)-3,6-dimethyl-2-oxo-1,2-dihydropyridin-4-yl]oxy}methyl)benzyl]urea]	11.1
COc1cccc(-n2nc(C(C)(C)C)cc2NC(=O)NCc2ccccc2COc2cc(C)n(Cc3ccccc3)c(=O)c2C)c1 [Example 128-B, 1-(2-{[(1-benzyl-3,6-dimethyl-2-oxo-1,2-dihydropyridin-4-yl)oxy]methyl}benzyl)-3-[3-tert-butyl-1-(3-methoxyphenyl)-1H-pyrazol-5-yl]urea]	12.5
Cc1ccc(-n2nc(C(C)(C)C)cc2NC(=O)NCc2ccccc2COc2cc(C)n(Cc3ccccc3)c(=O)c2C)cc1 [Example 128-C, 1-(2-{[(1-benzyl-3,6-dimethyl-2-oxo-1,2-dihydropyridin-4-yl)oxy]methyl}benzyl)-3-[3-tert-butyl-1-(4-methylphenyl)-1H-pyrazol-5-yl]urea]	12.1
COC(=O)c1ccc(C)c(-n2c(C)cc(OCc3ccc(F)cc3CNC(=O)Nc3cc(C(C)(C)C)nn3-c3ccc(C)cc3)c(Cl)c2=O)c1 [Example 181, Methyl 3-{4-[(2-{[({[3-tert-butyl-1-(4-methylphenyl)-1H-pyrazol-5-yl]amino}carbonyl)amino]methyl}-4-fluorobenzyl)oxy]-3-chloro-6-methyl-2-oxopyridin-1(2H)-yl}-4-methylbenzoate]	3.31
COC(=O)c1ccc(C)c(-n2c(C)cc(OCc3ccc(F)cc3CNC(=O)Nc3cc(C(C)(C)C)nn3-c3cccc(Cl)c3)c(Cl)c2=O)c1 [Example 182, Methyl 3-{4-[(2-{[({[3-tert-butyl-1-(3-chlorophenyl)-1H-pyrazol-5-yl]amino}carbonyl)amino]methyl}-4-fluorobenzyl)oxy]-3-chloro-6-methyl-2-oxopyridin-1(2H)-yl}-4-methylbenzoate]	3.99
COC(=O)c1ccc(C)c(-n2c(C)cc(OCc3ccc(F)cc3CNC(=O)Nc3cc(C(C)(C)C)nn3-c3cccc(OC)c3)c(Cl)c2=O)c1 [Example 183, Methyl 3-{4-[(2-{[({[3-tert-butyl-1-(3-methoxyphenyl)-1H-pyrazol-5-yl]amino}carbonyl)amino]methyl}-4-fluorobenzyl)oxy]-3-chloro-6-methyl-2-oxopyridin-1(2H)-yl}-4-methylbenzoate]	2.26
COC(=O)c1ccc(C)c(-n2c(C)cc(OCc3ccc(F)cc3CNC(=O)Nc3cc(C(C)(C)C)nn3-c3ccc(C)cc3)c(Br)c2=O)c1 [Example 185, methyl 3-{3-bromo-4-[(2-{[({[3-tert-butyl-1-(4-methylphenyl)-1H-pyrazol-5-yl]amino}carbonyl)amino]methyl}-4-fluorobenzyl)oxy]-6-methyl-2-oxopyridin-1(2H)-yl}-4-methylbenzoate]	3.61
Cc1ccc(-n2nc(C(C)(C)C)cc2NC(=O)NCc2cc(F)ccc2COc2cc(C)n(-c3cc(C(=O)O)ccc3C)c(=O)c2Cl)cc1 [Example 186, 3-{4-[(2-{[({[3-tert-butyl-1-(4-methylphenyl)-1H-pyrazol-5-yl]amino}carbonyl)amino]methyl}-4-fluorobenzyl)oxy]-3-chloro-6-methyl-2-oxopyridin-1(2H)-yl}-4-methylbenzoic acid]	4.62
COc1cccc(-n2nc(C(C)(C)C)cc2NC(=O)NCc2cc(F)ccc2COc2cc(C)n(-c3cc(C(=O)O)ccc3C)c(=O)c2Cl)c1 [Example 189, 3-{4-[(2-{[({[3-tert-butyl-1-(3-methoxyphenyl)-1H-pyrazol-5-yl]amino}carbonyl)amino]methyl}-4-fluorobenzyl)oxy]-3-chloro-6-methyl-2-oxopyridin-1(2H)-yl}-4-methylbenzoic acid]	2.55
Cc1ccc(-n2nc(C(C)(C)C)cc2NC(=O)NCc2cc(F)ccc2COc2cc(C)n(-c3cc(C(=O)NCCO)ccc3C)c(=O)c2Cl)cc1 [Example 190, 3-{4-[(2-{[({[3-tert-butyl-1-(4-methylphenyl)-1H-pyrazol-5-yl]amino}carbonyl)amino]methyl}-4-fluorobenzyl)oxy]-3-chloro-6-methyl-2-oxopyridin-1(2H)-yl}-N-(2-hydroxyethyl)-4-methylbenzamide]	2.37
Cc1ccc(-n2nc(C(C)(C)C)cc2NC(=O)NCc2cc(F)ccc2COc2cc(C)n(-c3cc(C(=O)NCCO)ccc3C)c(=O)c2Br)cc1 [Example 193, 3-{3-bromo-4-[(2-{[({[3-tert-butyl-1-(4-methylphenyl)-1H-pyrazol-5-yl]amino}carbonyl)amino]methyl}-4-fluorobenzyl)oxy]-6-methyl-2-oxopyridin-1(2H)-yl}-N-(2-hydroxyethyl)-4-methylbenzamide]	2.21
CNC(=O)c1ccc(C)c(-n2c(C)cc(OCc3ccc(F)cc3CNC(=O)Nc3cc(C(C)(C)C)nn3-c3cccc(Cl)c3)c(Cl)c2=O)c1 [Example 194, 3-{4-[(2-{[({[3-tert-butyl-1-(3-chlorophenyl)-1H-pyrazol-5-yl]amino}carbonyl)amino]methyl}-4-fluorobenzyl)oxy]-3-chloro-6-methyl-2-oxopyridin-1(2H)-yl}-N,4-dimethylbenzamide]	2.45
Cc1ccc(C(=O)NCCO)cc1-n1c(C)cc(OCc2ccc(F)cc2CNC(=O)Nc2cc(C(C)(C)C)nn2-c2cccc(Cl)c2)c(Cl)c1=O [Example 195, 3-{4-[(2-{[({[3-tert-butyl-1-(3-chlorophenyl)-1H-pyrazol-5-yl]amino}carbonyl)amino]methyl}-4-fluorobenzyl)oxy]-3-chloro-6-methyl-2-oxopyridin-1(2H)-yl}-N-(2-hydroxyethyl)-4-methylbenzamide]	3.93

same assay, conditions: Table 2; same p38α/MK2 cascade assay; 40 minutes preincubation; read-out: p38a/MK2 Cascade 40 min Pre-Incuabtion (% Inhibition): IC50

SMILES	IC50 [nM]
COc1cccc(Cn2c(C)cc(OCc3ccc(F)cc3CNC(=O)Nc3cc(C(C)(C)C)nn3-c3cccc(OC)c3)c(Cl)c2=O)c1 [Example 201, 1-[3-tert-butyl-1-(3-methoxyphenyl)-1H-pyrazol-5-yl]-3-[2-({[3-chloro-1-(3-methoxybenzyl)-6-methyl-2-oxo-1,2-dihydropyridin-4-yl]oxy}methyl)-5-fluoro-benzyl]urea]	4.5
COc1ccc(Cn2c(C)cc(OCc3ccc(F)cc3CNC(=O)Nc3cc(C(C)(C)C)nn3-c3ccc(Cl)c(O)c3)c(Cl)c2=O)cc1 [Example 202, 1-[3-tert-butyl-1-(4-chloro-3-hydroxyphenyl)-1H-pyrazol-5-yl]-3-[2-({[3-chloro-1-(4-methoxy-benzyl)-6-methyl-2-oxo-1,2-dihydropyridin-4-yl]oxy}methyl)-5-fluorobenzyl]urea]	3.1
COC(=O)c1ccc(C)c(-n2c(C)cc(OCc3ccc(F)cc3CNC(=O)Nc3cc(C(C)(C)C)nn3-c3cccc(O)c3)c(Cl)c2=O)c1 [Example 203, methyl 3-{4-[(2-{[({[3-tert-butyl-1-(3-hydroxy-phenyl)-1H-pyrazol-5-yl]amino}-carbonyl)amino]-methyl}-4-fluorobenzyl)oxy]-3-chloro-6-methyl-2-oxopyridin-1(2H)-yl}-4-methylbenzoate]	2.8
COC(=O)c1ccc(C)c(-n2c(SC)nc(OCc3ccccc3CNC(=O)Nc3cc(C(C)(C)C)nn3-c3ccc(C)cc3)cc2=O)c1 [Example 204, methyl 3-{4-[(2-{[({[3-tert-butyl-1-(4-methylphenyl)-1H-pyrazol-5-yl]amino}carbonyl)-amino]-methyl}-benzyl)oxy]-2-(methylthio)-6-oxopyrimidin-1(6H)-yl}-4-methylbenzoate]	26.3
COC(=O)c1ccc(C)c(-n2c(C)cc(OCc3ccccc3CNC(=O)Nc3cc(C(C)(C)C)nn3-c3ccc(C)cc3)c(Cl)c2=O)c1 [Example 205, methyl 3-{4-[(2-{[({[3-tert-butyl-1-(4-methylphenyl)-1H-pyrazol-5-yl]amino}carbonyl)-amino]methyl}benzyl)oxy]-3-chloro-6-methyl-2-oxopyridin-1(2H)-yl}-4-methylbenzoate]	2.5
CNC(=O)c1ccc(C)c(-n2c(C)cc(OCc3ccc(F)cc3CNC(=O)Nc3cc(C(C)(C)C)nn3-c3ccc(C)cc3)c(Cl)c2=O)c1 [Example 206, 3-{4-[(2-{[({[3-tert-butyl-1-(4-methylphenyl)-1H-pyrazol-5-yl]amino}carbonyl)amino]methyl}-4-fluorobenzyl)oxy]-3-chloro-6-methyl-2-oxopyridin-1(2H)-yl}-N,4-dimethylbenzamide]	3.71
Cc1ccc(-n2nc(C(C)(C)C)cc2NC(=O)NCc2cc(F)ccc2COc2cc(C)n(-c3cc(C(=O)O)ccc3C)c(=O)c2Br)cc1 [Example 207, 3-{3-bromo-4-[(2-{[({[3-tert-butyl-1-(4-methylphenyl)-1H-pyrazol-5-yl]amino}carbonyl)-amino]methyl}-4-fluorobenzyl)oxy]-6-methyl-2-oxopyridin-1(2H)-yl}-4-methylbenzoic acid]	4.54
CNC(=O)c1ccc(C)c(-n2c(C)cc(OCc3ccc(F)cc3CNC(=O)Nc3cc(C(C)(C)C)nn3-c3cccc(OC)c3)c(Cl)c2=O)c1 [Example 208, 3-{4-[(2-{[({[3-tert-butyl-1-(3-methoxyphenyl)-1H-pyrazol-5-yl]amino}carbonyl)amino]methyl}-4-fluorobenzyl)oxy]-3-chloro-6-methyl-2-oxopyridin-1(2H)-yl}-N,4-dimethyl-benzamide]	1.79

— patent US20090270350A1, “Pyridinone Pyrazole Urea and Pyrimidinone Pyrazole Urea Derivatives” (PFIZER INC., priority 2006, published 2009)
